According to US8722890B2 (AbbVie Inc., priority 2008, dated 2014):
Like-named read-outs stand apart in the source and are kept apart here.

Assays:
Aurora C = Aurora C (Homo sapiens (Human), UniProt Q9UQB9); assay: Aurora C activity assay (time-resolved fluorescence); format: biochemical; conditions: Table 5; read-out: Aurora C HTRF IC50
Procedure: To determine Aurora A and C activity of representative compounds of the invention, Active Aurora A or C enzyme was incubated in wells of a 384 well plate with biotinylated STK substrate-2 (Upstate), 1 mM ATP, and various concentrations of inhibitors in a Hepes buffer, pH 7.4 containing MgCl2, sodium othrovanadate, and Triton X-100. After 1 hour, the reaction was stopped with EDTA and anti-phospho-STK antibody Europium Cryptate (Upstate) and SA-XL665 (Upstate) were added to detect the phosphopeptide. The amount of phosphorylation was determined by the time-resolved fluorescence ratio of signals at 665 nm and 615 nm. The IC50s were calculated by an exponential fit of the inhibition values with the inhibitor concentrations using Assay Explorer software.

cKIT = cKIT (Homo sapiens (Human), UniProt P10721); assay: HTRF in vitro kinase assay, cKIT; format: biochemical; conditions: PDGFR family; 1 mM ATP
Procedure: (§1) To determine the activity of the various kinases, a homogenous time-resolved fluorescence (HTRF) in vitro kinase assay was used.
(§2) For example for KDR, cKIT, FLT1, CSF1R and FTL3, purified enzyme was mixed with 0.5 μM N-biotinylated substrate (Biotin-Ahx-[…]-amide (SEQ. ID. 1)), various concentrations of inhibitor in reaction buffer (50 mM HEPES, pH 7.1, 10 mM MgCl2, 2 mM MnCl2, 0.1% BSA and 1 mM DTT, 40 μL final volume), ATP (1 mM final conc.) in a black 384-well plate. […] The quenched reaction was allowed to stand at room temperature for 3 hours and was then read in a time-resolved fluorescence detector (InVision, Perkin-Elmer) at 620 nm and 665 nm sequentially with excitation.

Aurora B = Aurora B (Homo sapiens (Human), UniProt Q96GD4); assay: Aurora B activity assay (time-resolved fluorescence); format: biochemical; conditions: Table 3; 1 mM ATP
Procedure: After 1 hour, the reaction was stopped with EDTA and anti-phospho-histone H3 Europium Cryptate (Cis-Bio) and SA-APC (Phycolink, Prozyme) were added to detect the phosphopeptide. The amount of phosphorylation was determined by the time-resolved fluorescence ratio of signals at 665 nm and 615 nm. The IC50's were calculated by an exponential fit of the inhibition values with the inhibitor concentrations using Assay Explorer software.

KDR = KDR (Homo sapiens (Human), UniProt P35968); assay: HTRF in vitro kinase assay, KDR; format: biochemical; conditions: VEGFR family; 1 mM ATP
Procedure: as §1, §2

CYP 3A4 = CYP 3A4 (Homo sapiens (Human), UniProt P08684); assay: CYP 3A4 Assay (pooled human liver microsomes, midazolam)
Procedure: Assays (200 μL final volume) were carried out in NUNC polypropylene deep well plates in 50 mM potassium phosphate buffer, pH 7.4, using a microtiter plate shaker in a 37° C. incubator. […] A constant amount of dimethylsulfoxide (1%) was added to the incubations with the test compounds, and each analysis was performed in duplicate. For preincubation experiments (Pre), the microsomes, test compounds, and NADPH were mixed and incubated 30 minutes before addition of midazolam. For coincubation experiments (Co), the compounds, microsomes, and midazolam were mixed and the reaction initiated by addition of NADPH to the wells. In both protocols, the complete reaction was terminated after 10 minutes of shaking by addition of 100 μL of a 1/1 mixture of acetonitrile and methanol containing 0.33 μM 1-hydroxytriazolam.
For analysis, an aliquot of each well were transferred to an autosampler vial and 10 μL injected onto a Shimadzu LC-10A HPLC system equipped with a YMC-AQ (2.0×50 mm) column. The components were separated using a gradient of 10% acetonitrile −0.1% acetic acid to 70% acetonitrile −0.1% acetic acid at a flow rate of at 0.4 mL/minute over 5 minutes.

Chain of Aurora B (Q96GD4 whole entry): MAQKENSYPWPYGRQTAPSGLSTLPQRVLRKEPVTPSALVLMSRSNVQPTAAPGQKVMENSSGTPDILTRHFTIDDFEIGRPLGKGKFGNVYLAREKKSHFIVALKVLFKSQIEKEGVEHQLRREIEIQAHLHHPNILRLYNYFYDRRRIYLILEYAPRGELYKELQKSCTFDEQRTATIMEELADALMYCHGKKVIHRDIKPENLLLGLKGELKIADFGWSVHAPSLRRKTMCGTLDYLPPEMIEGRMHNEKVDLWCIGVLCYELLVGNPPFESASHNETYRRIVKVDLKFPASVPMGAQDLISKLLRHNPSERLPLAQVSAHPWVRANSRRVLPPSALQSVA
Chain of Aurora B (Q9NQS7 826-918 partner): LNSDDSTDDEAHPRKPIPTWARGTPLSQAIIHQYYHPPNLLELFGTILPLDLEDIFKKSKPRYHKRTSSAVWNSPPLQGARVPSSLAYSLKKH
Chain of cKIT (P10721 544-976): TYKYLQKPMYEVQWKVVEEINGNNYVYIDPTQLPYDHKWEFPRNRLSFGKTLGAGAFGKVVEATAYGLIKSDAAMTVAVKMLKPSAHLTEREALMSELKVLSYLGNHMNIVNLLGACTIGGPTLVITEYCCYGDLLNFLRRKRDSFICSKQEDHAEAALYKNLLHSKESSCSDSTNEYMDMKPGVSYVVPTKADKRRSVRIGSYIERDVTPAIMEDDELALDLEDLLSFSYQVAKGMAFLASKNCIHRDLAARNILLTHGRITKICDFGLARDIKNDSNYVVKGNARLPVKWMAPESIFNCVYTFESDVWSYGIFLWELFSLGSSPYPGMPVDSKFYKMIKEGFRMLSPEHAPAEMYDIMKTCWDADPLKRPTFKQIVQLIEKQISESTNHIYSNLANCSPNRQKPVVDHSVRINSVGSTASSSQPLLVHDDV
Chain of CYP 3A4 (P08684 whole entry): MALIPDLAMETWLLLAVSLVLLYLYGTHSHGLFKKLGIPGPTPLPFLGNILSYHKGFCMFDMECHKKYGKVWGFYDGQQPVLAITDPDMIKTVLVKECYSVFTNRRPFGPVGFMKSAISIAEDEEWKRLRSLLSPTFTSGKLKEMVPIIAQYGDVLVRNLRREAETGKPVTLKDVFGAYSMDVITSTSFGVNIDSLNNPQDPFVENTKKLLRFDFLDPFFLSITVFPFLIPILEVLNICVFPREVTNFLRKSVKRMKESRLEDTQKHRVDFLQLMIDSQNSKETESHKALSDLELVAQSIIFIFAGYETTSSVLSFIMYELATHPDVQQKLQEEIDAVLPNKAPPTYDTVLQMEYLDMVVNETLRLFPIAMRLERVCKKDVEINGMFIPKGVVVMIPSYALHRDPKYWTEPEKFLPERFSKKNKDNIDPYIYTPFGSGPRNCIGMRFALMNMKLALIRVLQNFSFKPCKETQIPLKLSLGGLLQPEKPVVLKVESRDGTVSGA
Chain of KDR (P35968 789-1354): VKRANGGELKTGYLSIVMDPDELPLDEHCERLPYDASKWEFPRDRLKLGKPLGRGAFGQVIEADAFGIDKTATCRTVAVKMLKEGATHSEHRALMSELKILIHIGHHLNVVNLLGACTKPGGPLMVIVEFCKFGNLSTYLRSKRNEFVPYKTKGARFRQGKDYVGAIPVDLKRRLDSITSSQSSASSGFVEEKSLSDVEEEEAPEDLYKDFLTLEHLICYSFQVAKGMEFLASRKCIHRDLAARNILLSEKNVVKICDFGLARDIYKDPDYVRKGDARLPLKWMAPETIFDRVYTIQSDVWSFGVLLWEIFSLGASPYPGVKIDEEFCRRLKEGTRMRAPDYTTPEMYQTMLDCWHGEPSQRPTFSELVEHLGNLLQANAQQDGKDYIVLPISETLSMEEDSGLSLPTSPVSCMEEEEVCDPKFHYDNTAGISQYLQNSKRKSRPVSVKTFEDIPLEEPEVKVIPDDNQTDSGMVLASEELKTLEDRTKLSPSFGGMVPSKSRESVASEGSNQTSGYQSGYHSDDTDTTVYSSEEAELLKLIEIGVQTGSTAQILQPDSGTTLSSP
Chain of Aurora C (Q9UQB9 whole entry): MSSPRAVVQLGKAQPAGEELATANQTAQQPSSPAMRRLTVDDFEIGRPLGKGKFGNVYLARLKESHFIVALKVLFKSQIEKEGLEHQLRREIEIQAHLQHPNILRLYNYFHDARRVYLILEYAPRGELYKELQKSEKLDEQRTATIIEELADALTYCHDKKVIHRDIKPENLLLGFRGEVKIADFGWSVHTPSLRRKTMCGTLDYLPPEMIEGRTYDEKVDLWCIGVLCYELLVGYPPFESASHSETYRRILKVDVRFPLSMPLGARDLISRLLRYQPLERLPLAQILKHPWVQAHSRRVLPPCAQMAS

Structure (SMILES) | IC50 (cKIT) | IC50 (Aurora B) | other results
Nc1ncc(-c2cnn(CCO)c2)c2scc(-c3ccc(NC(=O)Nc4cccc(F)c4)cc3)c12 [Example 1, N-(4-{4-amino-7-[1-(2-hydroxyethyl)-1H-pyrazol-4-yl]thieno[3,2-c]pyridin-3-yl}phenyl)-N′-(3-fluorophenyl)urea] | – | – | IC50 (Aurora C): 0.001 µM
Nc1ncc(-c2cnn(CCO)c2)c2scc(-c3ccc(NC(=O)Nc4ccc(OC(F)F)cc4)cc3)c12 [Example 2, N-(4-{4-amino-7-[1-(2-hydroxyethyl)-1H-pyrazol-4-yl]thieno[3,2-c]pyridin-3-yl}phenyl)-N′-[4-(difluoromethoxy)phenyl]urea] | 0.0273 µM | 0.00787 µM | –
Cc1cccc(NC(=O)Nc2ccc(-c3csc4c(-c5cnn(C[C@H](C)O)c5)cnc(N)c34)cc2)c1 [Example 3, N-[4-(4-amino-7-{1-[(2S)-2-hydroxypropyl]-1H-pyrazol-4-yl}thieno[3,2-c]pyridin-3-yl)phenyl]-N′-(3-methylphenyl)urea] | – | 0.0112 µM | –

Further lines, with some results ahead:

IC50 (cKIT) | IC50 (Aurora B) | Structure (SMILES) | other results
– | 0.0148 µM | COc1ccc(NC(=O)Nc2ccc(-c3csc4c(-c5cnn(CC(C)(C)O)c5)cnc(N)c34)cc2)cc1 [Example 4, N-(4-{4-amino-7-[1-(2-hydroxy-2-methylpropyl)-1H-pyrazol-4-yl]thieno[3,2-c]pyridin-3-yl}phenyl)-N′-(4-methoxyphenyl)urea] | IC50 (KDR): 0.00501 µM; IC50 (CYP 3A4; read-out: CYP 3A4 IC50, coincubation (Co), Co: reaction initiated by addition of NADPH, 2 μM midazolam): > 10 µM; IC50 (CYP 3A4; read-out: CYP 3A4 IC50, preincubation (Pre), Pre: microsomes, compound, NADPH incubated 30 minutes before midazolam): > 10 µM
0.0126 µM | – | COc1ccc(NC(=O)Nc2ccc(-c3csc4c(-c5cnn(C[C@H](O)CO)c5)cnc(N)c34)cc2)cc1 [Example 5, N-[4-(4-amino-7-{1-[(2S)-2,3-dihydroxypropyl]-1H-pyrazol-4-yl}thieno[3,2-c]pyridin-3-yl)phenyl]-N′-(4-methoxyphenyl)urea] | –
– | 0.00844 µM | Cc1cccc(NC(=O)Nc2ccc(-c3csc4c(-c5cn[nH]c5)cnc(N)c34)cc2)c1 [Example 6, N-{4-[4-amino-7-(1H-pyrazol-4-yl)thieno[3,2-c]pyridin-3-yl]phenyl}-N′-(3-methylphenyl)urea, reference compound] | –
